The numbers were not newly measured in article PMC6175367 (Journal of Clinical Pharmacology, 2018), which cites them from elsewhere.

In this series the test system is PRA. The following applies: aliskiren 300 mg on day 1 and days 4‐10, Japanese and white subjects; cited from earlier work.

In the case of `COCCCOc1cc(C[C@@H](C[C@H](N)[C@@H](O)C[C@H](C(=O)NCC(C)(C)C(N)=O)C(C)C)C(C)C)ccc1OC` [aliskiren], the “PRA inhibition at steady state” value is reported as “incomplete PRA inhibition”.
